Laboratory results published in patent US12042530B2, “Target peptides for immunotherapy and diagnostics” (University of Virginia Patent Foundation, priority 2012, dated 2024).
Where two headings read alike, the source gives them in different places. Non-standard residues stand in square brackets, D forms with d. No end group written: not given here. pS = N[C@@H](COP(=O)(O)O)C(=O)O

Columns and labels:
phosphoS33-β-catenin = test: Western blot of phosphoS33-β-catenin and β-catenin; format: cell-based, human; details: BIO in the presence of lactacystin
Description: Lysates were prepared from ˜80% confluent cells in buffer containing 2% Triton X 100 and protease and phosphatase inhibitors. Samples were separated on 8% SDS-PAGE (Thermo Fischer Scientific Inc., Waltham, Massachusetts, United States of America) and transferred to PVDF membranes (Millipore Immobilon-FL, 0.45 μm; Millipore Corporation, Billerica, Massachusetts, United States of America). Blots were probed with phosphoS33-β-catenin, β-catenin, and GAPDH antibodies overnight at 4° C. and developed by enhanced chemiluminescence (Millipore). Films were scanned and integrated density values determined using AlphaEase software and normalized to values obtained for GAPDH. In some cases, GSK-3 activity was inhibited using 5 μg BIO ((2′Z, 3′E)-6-Bromoindirubin-3′-oxime) and proteasomal degradation was blocked with 10 μg lactacystin (Calbiochem) before cells were lysed.

melanoma cells = test: T cell recognition of GSK-3β- and proteasome-inhibited melanoma cells; format: cell-based, human; details: DM331 and SLM2, re-expression of peptide-MHC in presence of inhibitor (5 μM)
Description: Surface peptide-MHC complexes were denatured from the cells using a mild acid buffer as previously described (Robila et al., 2008) and then allowed to re-express peptide-MHC molecules in the presence of BIO, MeBIO, or 5 μM lactacystin for 12 hours. T cell recognition of the cells was evaluated after 5 hours incubation with pS33-βcat-specific T cells.

PBMCs [1] = test: 7-day recall ELISpot, AML patients, before and after stem cell transplantation; format: cell-based, human
Description: To develop a more complete understanding of phosphoantigen-directed T cell immunity in patients with leukemia, these studies were extended into AML using a panel of 14 AML-specific phosphopeptide antigens. A cohort of 12 patients in complete remission (CR) with AML (see Table 24) were assessed using 7-day recall responses, as measured by ELISpot, and compared against a cohort of 12 healthy donors (see FIGS. 14A and 16).
To test this hypothesis, all 12 AML patients underwent allogeneic SCT and immune reconstitution against 14 AML-specific phosphopeptide antigens was monitored. […] For some patients, immune reconstitution was studied in more detail. For patient AML8 marked expansions of 6 different phosphopeptide immune responses were observed (see FIG. 14E).
For ELISpot analysis, PBMCs and CD8^+ T cells were isolated fresh from healthy donors and patients. 1×10^6 PBMCs were isolated from both AML patients and healthy donors and resuspended in AIM-V media (10% human AB serum) in a 96 well plate. Peptide or phosphopeptides were added individually at 10 μg/ml and placed at 37° C. in CO2 incubator for 7 days. Cells were then harvested, washed 4 times, and re-challenged with phosphopeptides, peptides, or anti-CD3 (OKT3, 100 ng/ml, Mabtech, Inc., Mariemont, Ohio, United States of America) as per the manufacturer's instructions. […]

PBMCs [2] = test: Memory T cell response, IFNγ ELISpot, healthy A2 positive donors; format: cell-based, human; details: for Day 7 ELISpot, donor alpha: healthy A2 positive donor alpha; for Day 7 ELISpot, donor one: healthy A2 positive donor one
cancer cell lines = test: Recognition of naturally processed phosphopeptides on cancer cell lines by phosphopeptide-specific CTL (murine IFNγ); format: cell-based, human; details: ovarian, melanoma and breast cancer lines versus JY EBV-BLCL control
Description: FIGS. 9A and 9B are bar graphs of the recognition of naturally processed and presented phosphorylated peptides on cancer cells by the phosphopeptide-specific CTL. Phosphopeptide-specific CTL were incubated with the following cancer cell lines or EBV-transformed B lymphoblastoid cell lines (BLCL): COV413.AAD.A4 ovarian carcinoma, DM331.AAD.A4 and SLM2.AAD.A1 melanomas, MCF7.AAD.A2 and MDAMB231.AAD breast carcinomas, and JY EBV-BLCL. Supernatants were harvested and evaluated for the presence of murine IFNγ (produced by murine CTL lines). […] The designation “pS” denotes a phosphoserine residue. The ordinate indicates murine IFNγ in pg/ml. The abscissa indicates each cell line.

CD8+ T cells = test: ELISpot T cell recognition assay, healthy donors, leukemia-associated phosphopeptides; format: cell-based, human; details: 10 HLA-A2+ and 10 HLA-B7+ healthy individuals, 7 day cultures
Description: Immunity against 76 HLA-B7 and 10 HLA-A2 leukemia-associated phosphopeptide antigens was assessed in 10 HLA-A2^+ and 10 HLA-B7^+ healthy individuals (see FIG. 12A).
For ELISpot analysis, PBMCs and CD8^+ T cells were isolated fresh from healthy donors and patients. 1×10^6 PBMCs were isolated from both AML patients and healthy donors and resuspended in AIM-V media (10% human AB serum) in a 96 well plate. Peptide or phosphopeptides were added individually at 10 μg/ml and placed at 37° C. in CO2 incubator for 7 days. Cells were then harvested, washed 4 times, and re-challenged with phosphopeptides, peptides, or anti-CD3 (OKT3, 100 ng/ml, Mabtech, Inc., Mariemont, Ohio, United States of America) as per the manufacturer's instructions. Individual cytokine-producing cells were identified as dark spots after a 15 minute reaction with 5-bromo-4-chloro-3-indolyl phosphate and NBT by means of an alkaline phosphatase conjugate substrate (Mabtech).

[3] = test system: RQA(pS)IELPSMAV-specific T cells; test: Recognition of peptide-loaded targets by RQA(pS)[…]-specific T cells (IFNγ); format: cell-based, human
Excerpt: Three of the HLA-A2 and two HLA-B7 phosphopeptides were derived from LSP-1, a protein previously identified as a potential tumor marker. One of these, RQA(pS)[…] (SEQ ID NO: 452), was selected for initial immunological studies due to its widespread expression on all HLA-A2^+ tumor samples analyzed and also because it was present on tumor samples at high copy number. Monocyte-derived dendritic cells were generated from healthy donors and used to prime autologous T cells and HLA-phosphopeptide tetramers were used to enrich phosphopeptide-specific T cells, between each stimulation steps, to produce a monospecific T cell line (see FIG. 11A). […] Recognition was, therefore, phosphate-dependent and phosphopeptide-specific.
HLA-A2 restricted RQA-V (SEQ ID NO: 2375) phosphopeptide-specific cytotoxic CD8^+ T cells were generated from healthy donors as described previously in Ho et al., 2006. Briefly, PBMCs were cultured in flat-bottom 6-well plates at 10^7 cells per well in RPMI 1640 plus 10% heat-inactivated human AB serum (10% media). GM-CSF (800 IU/mL), and IL-4 (1000 units/mL; PeproTech) were added on day 0 to generate dendritic cells (DC). On day 1, a maturation cocktail was added containing 100 ng/ml TNFα, 100 ng/ml IL-1β, 10,000 IU/ml IL-6, 8,000 IU/ml GM-CSF, and 10 μg/ml PGE2. […]

HLA A*0201 = HLA A*0201 (Homo sapiens, UniProt P04439, D140Y/D185E/D98H/E176V/E277Q/G131W/G231S/I119V/I121R/I166T/I218V/L300P/L318F/N151K/N90K/P208A/P217A/Q86G/Q94H/R138H/R169H/T345S); test: Binding to HLA A*0201 (statement)
HLA A*0301 = HLA A*0301 (Homo sapiens, UniProt P04439); test: Binding to HLA A*0301 (statement)

Molecule: CC(=O)NC(CSC(=O)C1(C(O)C(C)C)NC(=O)C(C)C1O)C(=O)O (stereo not shown) [lactacystin, 2-(acetylamino)-3-[({3-hydroxy-2-[1-hydroxy-2-methylpropyl]-4-methyl-5-oxopyrrolidin-2-yl}carbonyl)sulfanyl]propanoic acid]
- Amount of phosphoS33-β-catenin in melanoma cells (phosphoS33-β-catenin): substantial increase
- pS33-βcat-specific T cell recognition of melanoma cells (melanoma cells): abolished

Molecule: EPRsPSHSM (EPR[pS]PSHSM; listed as Homo sapiens) [SEQ ID NO: 270]
- Immune reconstitution after allogeneic stem cell transplantation (PBMCs [1]): dramatic expansion

Molecule: GLLGpSPVRA (GLLG[pS]PVRA; listed as Homo sapiens) [SEQ ID NO: 396]
- Day 7 ELISpot, donor alpha (PBMCs [2]): + (3-24 spots)
- Day 7 ELISpot, donor one (PBMCs [2]): + (3-24 spots)
- Recognition of the endogenous phosphopeptide by specific CTL lines (cancer cell lines): recognized the phosphopeptide on all the cancer cell lines but not the control cell line

Molecule: QPRtPSPLVL [SEQ ID NO: 304]
- Immune reconstitution after allogeneic stem cell transplantation (PBMCs [1]): dramatic expansion
- Immune response in healthy donors, in words (CD8+ T cells): some of the strongest responses

Molecule: RQA(pS)IELPSMAV (RQA[pS]IELPSMAV; listed as Homo sapiens) [SEQ ID NO: 452]
- IFNγ production by RQA(pS)IELPSMAV-specific T cells in response to the peptide [3]: produced IFNγ
- Immune response in healthy donors, in words (CD8+ T cells): some of the strongest responses

Molecule: RQASIELPSMAV [reference compound]
- IFNγ production by RQA(pS)IELPSMAV-specific T cells in response to the peptide [3]: not to the unphosphorylated RQASIELPSMAV

Molecule: RVApSPTSGV (RVA[pS]PTSGV; listed as Homo sapiens) [SEQ ID NO: 418]
- Day 7 ELISpot, donor alpha (PBMCs [2]): ++ (25-99 spots)
- Day 7 ELISpot, donor one (PBMCs [2]): ++ (25-99 spots)
- Memory T cell response, in words (PBMCs [2]; healthy donors / patient): None of the HD recognized or responded to it
- Binding to HLA A*0201 (HLA A*0201): binds to HLA A*0201
- Binding to HLA A*0201 (HLA A*0201; listed as RVA): did not bind to A*0201
- Recognition of the endogenous phosphopeptide by specific CTL lines (cancer cell lines): recognized the phosphopeptide on all the cancer cell lines but not the control cell line
- Binding to / presentation by HLA A*0301 (HLA A*0301): cannot be presented by the A*0301 molecule
- Binding to / presentation by HLA A*0301 (HLA A*0301; listed as RVA): binds to A*0301
